Data from patent US11040987B2 (TenNor Therapeutics Limited, priority 2019, dated 2021).
Converted amounts (≈) assume the structure as drawn.

Columns and labels:
Format in all cases: cell-based
[1] = tested on: A. baumannii ATCC 19606; experiment: MIC determination, broth microdilution, ESKAPE panel; conditions: Acinetobacter baumannii, ATCC19606; iron-depleted cation-adjusted Mueller-Hinton broth, 2,2-dipyridyl 160 μM; 37° C., 18-20 hours; read-out: MIC A. baumannii ATCC 19606
Experimental: (§1) Minimum inhibitory concentration (MIC) is determined by a broth microdilution method according to the recommendation of the Clinical and Laboratory Standards Institute (CLSI) with minor modification. […] Strains of an ESKAPE panel (E. faecium ATCC 700221, S. aureus ATCC 29213, K. pneumoniae ATCC 43816, A. baumannii ATCC 19606, P. aeruginosa ATCC 27853 and Escherichia coli ATCC 25922) were obtained originally from the American Type Culture Collection (ATCC) and used for MIC determinations of compounds. The bacteria inoculum in the test is […].

[2] = tested on: E. faecium ATCC 700221; experiment: as above; conditions: Enterococcus faecium, ATCC700221; iron-depleted cation-adjusted Mueller-Hinton broth, 2,2-dipyridyl 160 μM; 37° C., 18-20 hours; read-out: MIC E. faecium ATCC 700221
Experimental: as §1

[3] = tested on: Escherichia coli ATCC 25922; experiment: as above; conditions: ATCC25922, iron-depleted cation-adjusted Mueller-Hinton broth, 2,2-dipyridyl 160 μM, 37° C., 18-20 hours, read-out: MIC E. coli ATCC 25922
Experimental: as §1

[4] = tested on: K. pneumoniae ATCC 43816; experiment: as above; conditions: Klebsiella pneumoniae, ATCC43816; iron-depleted cation-adjusted Mueller-Hinton broth, 2,2-dipyridyl 160 μM; 37° C., 18-20 hours; read-out: MIC K. pneumoniae ATCC 43816
Experimental: as §1

[5] = tested on: P. aeruginosa ATCC 27853; experiment: as above; conditions: Pseudomonas aeruginosa, ATCC27853; iron-depleted cation-adjusted Mueller-Hinton broth, 2,2-dipyridyl 160 μM; 37° C., 18-20 hours; read-out: MIC P. aeruginosa ATCC 27853
Experimental: as §1

[6] = tested on: S. aureus ATCC 29213; experiment: as above; conditions: Staphylococcus aureus, ATCC29213; iron-depleted cation-adjusted Mueller-Hinton broth, 2,2-dipyridyl 160 μM; 37° C., 18-20 hours; read-out: MIC S. aureus ATCC 29213
Experimental: as §1

[7] = tested on: A.b TNP 41704; experiment: MIC against A. baumannii clinical isolates, alone and in combination with antibiotics; conditions: for MIC: Acinetobacter baumannii, TNP41704, Compounds alone, read-out: MIC A.b TNP 41704
[8] = tested on: A.b TNP 41708; experiment: as above; conditions: for MIC: Acinetobacter baumannii, TNP41708, read-out: MIC A.b TNP 41708
Experimental: as §1

[9] = tested on: A.b TNP 41709; experiment: as above; conditions: for MIC: Acinetobacter baumannii, TNP41709, Compounds alone, read-out: MIC A.b TNP 41709

Row | SMILES | MIC [1] | MIC [2] | MIC [3] | MIC [4] | MIC [5] | MIC [6] | MIC [7] | MIC A.b TNP 41704 ([7]; Compounds + meropenem (1:1)) | MIC A.b TNP 41704 ([7]; Compounds + sulbactam (1:1)) | MIC [8] | MIC A.b TNP 41708 ([8]; Compounds + meropenem (1:1)) | MIC A.b TNP 41708 ([8]; Compounds + sulbactam (1:1)) | MIC [9] | MIC A.b TNP 41709 ([9]; Compounds + meropenem (1:1)) | MIC A.b TNP 41709 ([9]; Compounds + sulbactam (1:1)) | MIC A.b TNP 41704 ([7]; Compounds + Imipenem (1:1)) | MIC A.b TNP 41708 ([8]; Compounds + Imipenem (1:1)) | MIC A.b TNP 41709 ([9]; Compounds + Imipenem (1:1))
1 | C[C@]1(/C=N/NC(=O)c2ccc(O)cc2)[C@H](C(=O)O)N2C(=O)C[C@H]2S1(=O)=O [Example 29, (2S,3R,5R)-3-((E)-(2-(4-hydroxybenzoyl)hydrazono)methyl)-3-methyl-7-oxo-4-thia-1-azabicyclo[3.2.0]heptane-2-carboxylic acid 4,4-dioxide] | > 128 µg/mL | > 128 µg/mL | > 128 µg/mL | > 128 µg/mL | > 128 µg/mL | > 128 µg/mL | > 128 µg/mL | 32 µg/mL | 8 µg/mL | > 128 µg/mL | 32 µg/mL | 32 µg/mL | > 128 µg/mL | 32 µg/mL | 32 µg/mL | – | – | –
2 | C[C@]1(/C=N/NC(=O)CCNC(=O)c2ccc(O)c(O)c2Cl)[C@H](C(=O)O)N2C(=O)C[C@H]2S1(=O)=O [Example 60, (2S,3R,5R)-3-((E)-(2-(3-(2-chloro-3,4-dihydroxybenzamido)propanoyl)hydrazono)methyl)-3-methyl-7-oxo-4-thia-1-azabicyclo[3.2.0]heptane-2-carboxylic acid 4,4-dioxide] | 2 µg/mL (≈ 3.98 µM) | > 128 µg/mL | > 128 µg/mL | 16 µg/mL (≈ 31.8 µM) | > 128 µg/mL | > 128 µg/mL | 64 µg/mL | 2 µg/mL | 1 µg/mL | > 128 µg/mL | 2 µg/mL | 8 µg/mL | > 128 µg/mL | 2 µg/mL | 8 µg/mL | 2 µg/mL | 2 µg/mL | 1 µg/mL
3 | CN(NC(=O)c1ccc(O)c(O)c1Cl)C(=O)OC[C@@]1(C)[C@H](C(=O)O)N2C(=O)C[C@H]2S1(=O)=O [Example 80, (2S,3R,5R)-3-(((2-(2-chloro-3,4-dihydroxybenzoyl)-1-methylhydrazinecarbonyl)oxy)methyl)-3-methyl-7-oxo-4-thia-1-azabicyclo[3.2.0]heptane-2-carboxylic acid 4,4-dioxide] | 0.25 µg/mL (≈ 0.508 µM) | > 128 µg/mL | 64 µg/mL (≈ 130 µM) | 16 µg/mL (≈ 32.5 µM) | > 128 µg/mL | > 128 µg/mL | > 128 µg/mL | 16 µg/mL | 4 µg/mL | > 128 µg/mL | 64 µg/mL | 32 µg/mL | > 128 µg/mL | 32 µg/mL | 8 µg/mL | – | – | –
4 | C[C@]1(CNc2ccc(O)c(O)c2)[C@H](C(=O)O)N2C(=O)C[C@H]2S1(=O)=O [Example 117, (2S,3S,5R)-3-(((3,4-dihydroxyphenyl)amino)methyl)-3-methyl-7-oxo-4-thia-1-azabicyclo[3.2.0]heptane-2-carboxylic acid 4,4-dioxide] | 4 µg/mL (≈ 11.2 µM) | > 128 µg/mL | > 128 µg/mL | > 128 µg/mL | > 128 µg/mL | > 128 µg/mL | 64 µg/mL | 8 µg/mL | 4 µg/mL | 128 µg/mL | 8 µg/mL | 4 µg/mL | 64 µg/mL | 8 µg/mL | 4 µg/mL | – | – | –
5 | C[C@]1(/C=N/NC(=O)c2cccc(O)c2O)[C@H](C(=O)O)N2C(=O)C[C@H]2S1(=O)=O [Example 28, (2S,3R,5R)-3-((E)-(2-(2,3-dihydroxybenzoyl)hydrazono)methyl)-3-methyl-7-oxo-4-thia-1-azabicyclo[3.2.0]heptane-2-carboxylic acid 4,4-dioxide] | > 128 µg/mL | > 128 µg/mL | > 128 µg/mL | > 128 µg/mL | > 128 µg/mL | > 128 µg/mL | > 128 µg/mL | 8 µg/mL | 4 µg/mL | > 128 µg/mL | 8 µg/mL | 8 µg/mL | > 128 µg/mL | 4 µg/mL | 8 µg/mL | – | – | –
